What was measured:
Format in all cases: cell-based
mouseP2X7 = molecular target: T1, mouseP2X7 (Mus musculus, UniProt Q9Z1M0); test: P2X7 channel calcium-influx assay (Fluo-8, FLIPR TETRA), mouse P2X7; conditions: HEK-293 cells stably transfected with P2X7; Bz-ATP at EC80; low divalent cation buffer; read-out: mouseP2X7 (activity range)
T1 construct: expressed in transfected cells; host or cells: HEK-293
T1 sequence (Q9Z1M0 1-595): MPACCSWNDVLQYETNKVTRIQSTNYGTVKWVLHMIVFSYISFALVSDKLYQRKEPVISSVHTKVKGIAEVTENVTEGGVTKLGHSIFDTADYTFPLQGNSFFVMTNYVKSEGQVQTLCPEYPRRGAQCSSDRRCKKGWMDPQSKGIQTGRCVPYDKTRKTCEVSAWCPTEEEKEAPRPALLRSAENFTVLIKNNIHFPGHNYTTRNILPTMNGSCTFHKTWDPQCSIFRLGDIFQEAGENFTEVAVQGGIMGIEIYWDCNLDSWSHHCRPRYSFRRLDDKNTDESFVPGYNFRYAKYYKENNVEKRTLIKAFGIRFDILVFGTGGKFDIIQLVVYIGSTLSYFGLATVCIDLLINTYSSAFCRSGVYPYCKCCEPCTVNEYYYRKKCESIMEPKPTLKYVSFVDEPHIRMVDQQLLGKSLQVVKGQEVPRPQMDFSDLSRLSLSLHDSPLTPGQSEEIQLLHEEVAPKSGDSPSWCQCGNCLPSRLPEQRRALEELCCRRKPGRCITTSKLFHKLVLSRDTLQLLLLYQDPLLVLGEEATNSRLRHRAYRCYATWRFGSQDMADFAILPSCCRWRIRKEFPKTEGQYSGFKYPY
Method: (§1) Extracellular binding of Bz-ATP to P2X7 receptor opens the channel and allows Ca^2+ influx into the cells. This Ca^2+ entry was measured in HEK-293 cells stably transfected with P2X7 receptor using Screen Quest™ Fluo-8 No Wash Calcium Assay Kit (AAt Bioquest®, cat. 36316). Once inside the cell, the lipophilic blocking groups of Fluo-8 are cleaved by non-specific cell esterases, resulting in a negatively-charged fluorescent dye that stays inside cells. Its fluorescence increases upon binding to calcium. When HEK-293/P2X7 cells are stimulated with Bz-ATP, Ca^2+ enters the cells and the fluorescence of Fluo-8 NW increases. The dye has an absorption spectrum compatible with excitation at 488 nm by argon laser sources and its emission wavelength is in the range of 515-575 nm.
(§2) HEK-293 cells stably transfected with P2X7 receptor were seeded overnight in growth medium at 10,000 to 20,000 cells/well in 384-well plate. 24 hours later, the medium was removed, and the cells were pre-loaded at RT for 1 hour with 20 μL/w of Fluo-8 NW. Then 10 μL/w of test compounds and reference antagonist A438079 at 3×-concentration were injected with the FLIPRTETRA and the kinetic response over a period of five minutes was monitored. A second injection of 15 μL/w of 3× reference activator (Bz-ATP at EC80) was performed with the FLIPR TETRA and the signal of the emitted fluorescence was recorded for additional three minutes. All the experiment was carried out in a Low Divalent Cation Assay Buffer (0.3 mM Ca^2+ and 0 mM Mg^2+). The effect of the test compounds was measured as percent inhibition vs the reference antagonist and IC50 values were calculated accordingly. Here are reported the potency ranges as A, B, C and D, where A is <200 nM; B is 200 nM-1 μM, C is 1-10 μM, D is 10-30 μM.

ratP2X7 = molecular target: T2, ratP2X7 (Rattus norvegicus, UniProt Q64663); test: P2X7 channel calcium-influx assay (Fluo-8, FLIPR TETRA), rat P2X7; conditions: HEK-293 cells stably transfected with P2X7; Bz-ATP at EC80; low divalent cation buffer; read-out: ratP2X7 (activity range)
T2 construct: expressed in transfected cells; host or cells: HEK-293
T2 sequence (Q64663 1-595): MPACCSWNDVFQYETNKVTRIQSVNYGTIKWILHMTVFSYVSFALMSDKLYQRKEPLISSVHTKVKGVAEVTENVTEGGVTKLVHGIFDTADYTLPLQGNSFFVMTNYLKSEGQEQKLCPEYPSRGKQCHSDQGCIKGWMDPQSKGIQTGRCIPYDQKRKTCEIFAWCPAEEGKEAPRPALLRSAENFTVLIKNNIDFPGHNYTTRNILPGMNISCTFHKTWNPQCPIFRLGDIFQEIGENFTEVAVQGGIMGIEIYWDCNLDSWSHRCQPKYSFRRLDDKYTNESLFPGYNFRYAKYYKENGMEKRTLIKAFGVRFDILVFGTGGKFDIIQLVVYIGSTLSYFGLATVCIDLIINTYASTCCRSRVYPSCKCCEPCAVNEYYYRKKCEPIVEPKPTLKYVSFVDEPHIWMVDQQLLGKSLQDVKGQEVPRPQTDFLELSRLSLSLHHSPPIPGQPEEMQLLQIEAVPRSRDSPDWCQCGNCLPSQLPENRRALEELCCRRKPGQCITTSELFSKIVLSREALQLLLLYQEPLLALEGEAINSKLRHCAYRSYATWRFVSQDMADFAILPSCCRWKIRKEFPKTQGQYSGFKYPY
Method: as §1, §2

humanP2X7 = molecular target: T3, humanP2X7 (Homo sapiens, UniProt Q99572); test: P2X7 channel calcium-influx assay (Fluo-8, FLIPR TETRA), human P2X7; conditions: HEK-293 cells stably transfected with P2X7; Bz-ATP at EC80; low divalent cation buffer; read-out: humanP2X7 (activity range)
T3 construct: expressed in transfected cells; host or cells: HEK-293
T3 sequence (Q99572 1-595): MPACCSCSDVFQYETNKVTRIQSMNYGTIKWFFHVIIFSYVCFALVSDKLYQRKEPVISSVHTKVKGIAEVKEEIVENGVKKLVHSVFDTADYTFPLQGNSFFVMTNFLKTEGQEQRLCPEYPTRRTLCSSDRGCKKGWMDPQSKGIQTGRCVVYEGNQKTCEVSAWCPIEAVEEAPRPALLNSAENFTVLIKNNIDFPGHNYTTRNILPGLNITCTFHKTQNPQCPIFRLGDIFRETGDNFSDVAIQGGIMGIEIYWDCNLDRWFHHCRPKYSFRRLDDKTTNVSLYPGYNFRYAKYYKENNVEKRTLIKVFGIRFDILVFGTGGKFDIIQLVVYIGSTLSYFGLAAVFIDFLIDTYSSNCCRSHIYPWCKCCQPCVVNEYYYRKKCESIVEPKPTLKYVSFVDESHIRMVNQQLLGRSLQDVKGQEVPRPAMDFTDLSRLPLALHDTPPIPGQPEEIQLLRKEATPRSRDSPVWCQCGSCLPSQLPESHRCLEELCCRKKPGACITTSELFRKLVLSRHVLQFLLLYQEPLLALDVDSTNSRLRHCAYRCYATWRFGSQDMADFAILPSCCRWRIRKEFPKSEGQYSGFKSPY
Method: as §1, §2

human P2X7 channel = molecular target: T4, human P2X7 channel (Homo sapiens, UniProt Q99572); test: human P2X7 channel assay by automated patch-clamp (QPatch 16X); conditions: HEK-293 cells expressing P2X7; current evoked by 100 microM BzATP; whole-cell, held at -80 mV; read-out: human Q-Patch (activity range)
T4 construct: expressed in transfected cells; host or cells: HEK-293
T4 sequence (Q99572 1-595): T3 sequence (Q99572 1-595)
Method: In order to directly monitor the block of P2X7 channel, an electrophysiological assay was developed and implemented on the QPatchl6X automated electrophysiology instrument.
HEK-293 cells expressing the P2X7 channels were cultured in modified EMEM.
72 hours before experiment, 5 million cells were seeded onto T225 flasks. Just before the experiment cells were washed twice, detached from the flask with trypsin-EDTA, re-suspended in the suspension solution and placed on the QPatch 16x.
The compounds (20 mM in a 100% DMSO) stored at −20° C. were prepared the day of the experiment (a first dilution 1:20 in 100% DMSO to prepare a 1 mM stock solution, then a 1 microM solution in external solution+a serial dilution 1:10).
The standard whole-cell voltage clamp experiments were performed at room temperature. From these experiments the multihole technology was used and the data were sampled at 2 KHz.
The intracellular solution contained (mM) 135 CsF, 10 NaCl, 1 EGTA, 10 HEPES, (pH 7.2 with CsOH) whereas the extracellular contained (mM) 145 NaCl, 4 KCl, 0.5 MgCl2, 1 CaCl2, 10 HEPES, 10 Glc (pH 7.4 with NaOH).
After establishment of the seal and the passage in the whole cell configuration, the cells were held at −80 mV. The P2XR7 current was evoked by applying 100 microM of BzATP alone (4 times) and then in the presence increasing concentrations of the compound under investigation (1, 10, 100 and 1000 nM).
The pre-incubation periods 5 to 8 contain increasing concentrations of the compound of interest (1, 10, 100 and 1000 nM), as illustrated in FIGURE (application protocol).
The maximal inward current evoked by BzATP in absence or presence of increasing concentrations of the compounds under investigation was measured and normalized. The potential […] effect was measured as % of control and as IC50 determined fitting the dose-response curves data with the following equation:
Here are reported the potency ranges as A, B, C and D, where A is <10 nM; B is 10 nM-100 nM, C is 0.1-1 μM, D is 1-10 μM.

Compound	IC50 (mouseP2X7) [nM]	IC50 (ratP2X7) [nM]	IC50 (humanP2X7) [nM]	IC50 (human P2X7 channel) [nM]
Cn1nc(Cc2c(F)cccc2Cl)n(Cc2ccc(F)cc2)c1=O [Example 1, 5-(2-chloro-6-fluorobenzyl)-4-(4-fluorobenzyl)-2-methyl-2,4-dihydro-3H-1,2,4-triazol-3-one]	1000 to 10000	200 to 1000	1000 to 10000	
Cn1nc(Cc2c(F)cccc2Cl)n(CC2CCCCC2)c1=O [Example 2, 5-(2-chloro-6-fluorobenzyl)-4-(cyclohexylmethyl)-2-methyl-2,4-dihydro-3H-1,2,4-triazol-3-one]	200 to 1000	< 200	200 to 1000	< 10
Cn1nc(Cc2c(F)cccc2Cl)n(CC2CCC(F)(F)CC2)c1=O [Example 3, 5-(2-chloro-6-fluorobenzyl)-4-((4,4-difluorocyclohexyl)methyl)-2-methyl-2,4-dihydro-3H-1,2,4-triazol-3-one]	200 to 1000	< 200	< 200	10 to 100
Cn1nc(Cc2c(F)cccc2Cl)n(CC2CCC(F)(F)C2)c1=O (centres unmarked) [Example 4, 5-(2-chloro-6-fluorobenzyl)-4-((3,3-difluorocyclopentyl)methyl)-2-methyl-2,4-dihydro-3H-1,2,4-triazol-3-one]	1000 to 10000	200 to 1000	200 to 1000	
Cn1nc(Cc2c(F)cccc2Cl)n(CC2CCC(F)CC2)c1=O (centres unmarked) [Example 6, 5-(2-chloro-6-fluorobenzyl)-4-((4-fluorocyclohexyl)methyl)-2-methyl-2,4-dihydro-3H-1,2,4-triazol-3-one]	200 to 1000	< 200	200 to 1000	
Cn1nc(Cc2c(F)cccc2Cl)n(CC2CCC(C(F)(F)F)CC2)c1=O (centres unmarked) [Example 7, 5-(2-chloro-6-fluorobenzyl)-2-methyl-4-((4-(trifluoromethyl)cyclohexyl)methyl)-2,4-dihydro-3H-1,2,4-triazol-3-one]	200 to 1000	< 200	< 200	
Cn1nc(Cc2ccc(F)cc2Cl)n(Cc2ccc(F)cc2)c1=O [Example 8, 5-(2-chloro-4-fluorobenzyl)-4-(4-fluorobenzyl)-2-methyl-2,4-dihydro-3H-1,2,4-triazol-3-one]	1000 to 10000	1000 to 10000	1000 to 10000	
Cn1nc(Cc2ccc(F)cc2Cl)n(CC2CCCCC2)c1=O [Example 9, 5-(2-chloro-4-fluorobenzyl)-4-(cyclohexylmethyl)-2-methyl-2,4-dihydro-3H-1,2,4-triazol-3-one]	200 to 1000	< 200	200 to 1000	
Cn1nc(Cc2ccc(F)cc2Cl)n(CC2CCC(F)(F)C2)c1=O (centres unmarked) [Example 10, 5-(2-chloro-4-fluorobenzyl)-4-((3,3-difluorocyclopentyl)methyl)-2-methyl-2,4-dihydro-3H-1,2,4-triazol-3-one]	1000 to 10000	200 to 1000	10000 to 30000	
O=c1n(CC(F)(F)F)nc(Cc2ccccc2Cl)n1CC1CCCCCC1 [Example 54, 5-[(2-chlorophenyl)methyl]-4-(cycloheptylmethyl)-2-(2,2,2-trifluoroethyl)-2,4-dihydro-3H-1,2,4-triazol-3-one]	200 to 1000	< 200	200 to 1000	
Cn1nc(CC2CCCCCC2)n(Cc2c(F)cccc2Cl)c1=O [Example 59, 4-[(2-chloro-6-fluorophenyl)methyl]-5-(cycloheptylmethyl)-2-methyl-2,4-dihydro-3H-1,2,4-triazol-3-one]	200 to 1000	< 200	200 to 1000	
CCn1nc(Cc2ccccc2Cl)n(CC2CCCCCC2)c1=O [Example 64, 5-[(2-chlorophenyl)methyl]-4-(cycloheptylmethyl)-2-ethyl-2,4-dihydro-3H-1,2,4-triazol-3-one]	200 to 1000	< 200	< 200	
Cn1nc(CC2CCC(F)(F)CC2)n(Cc2c(F)cccc2Cl)c1=O [Example 71, 4-[(2-chloro-6-fluorophenyl)methyl]-5-[(4,4-difluorocyclohexyl)methyl]-2-methyl-2,4-dihydro-3H-1,2,4-triazol-3-one]	1000 to 10000	200 to 1000	200 to 1000	

— patent US20240368092A1, “2,4-Dihydro-3H-1,2,4-Triazol-3-One P2X7 Antagonists” (Breye Therapeutics ApS, priority 2021, published 2024)
